Data on one compound can be found in US8338414B2, “Immunosuppressive agent and anti-tumor agent comprising heterocyclic compound as active ingredient” (Zenyaku Kogyo KabushikiKaisha, priority 2005, dated 2012).

Read-outs that look alike come from different tables or passages of the source.

The subject of test [1] is collagen-induced arthritis. The experiment in a line: Collagen-induced arthritis inhibitory action. Format: in vivo, mouse. The following applies: DBA1 mice. Here is the method:
Bovine type II collagen suspended in Freund's complete adjuvant was intradermally administered to the base of tail of DBA1 male mice (7 weeks old, purchased from Charles River Laboratories Japan Inc.) on day 1 and day 21. Then, from day 28 when 50% of the mice developed arthritis, the test substances suspended in 0.5% hydroxypropylcellulose (HPC) were orally administered on consecutive days. Here, the efficacy was evaluated by scoring the arthritis. Specifically, for each paw, the degree of arthritis was evaluated according to: no symptoms: 0; redness or swelling of one joint: 1; redness or swelling for two or more joints: 2; redness or swelling over the entire paw: 3; and maximum redness or swelling over the entire paw: 4.

Test [2] concerns Rabbit synoviocytes HIG-82. The test is described as follows: Inhibition assay for proliferation of rabbit synoviocyte. Particulars: Oryctolagus cuniculus, 72 h; HIG-82, 3 days, Alamar Blue. The class given is cell-based. In general terms: Resazurin is reduced to fluorescent resorufin, in cell work by metabolically active cells.
A further test has as its system mouse spleen cells. The test is described as follows: Proliferation inhibition assay for mouse spleen cells. Format: cell-based. The following applies: 72 h, 3 days, Alamar Blue. The procedure, abridged:
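C57BL/6N female mouse spleen cells (2×10^6 cells/mL) stimulated with Con A (3 μg/mL), LPS (100 μg/mL) or anti-mouse IgM (100 μg/mL) alongside serially diluted compounds, 3 days at 37° C, 5% CO2. Alamar Blue added for a further day; fluorescence read at ex 530/em 590 nm.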

On to `FC(F)c1nc2ccccc2n1-c1nc(N2CCOCC2)nc(N2CCOCC2)n1` [Compound 4, 2-(2-Difluoromethylbenzimidazol-1-yl)-4,6-dimorpholino-1,3,5-triazine], for which the “arthritis score, difference versus control group” value in test [1] (50 mg/kg oral, after day 44 (conditions exacerbated after day 40)) is reported as “no significant difference was recognized in comparison with the control group”. The “arthritis score, efficacy versus control group” value in test [1] (50 or 100 mg/kg oral, after day 30, Dunnett's test P<0.05) was “a statistically significant efficacy was recognized”. The “progression of collagen-induced arthritis (arthritis score)” value in test [1] (oral on consecutive days from day 28) is “inhibited the progression of the collagen-induced arthritis in a dose-dependent manner”. Further, the IC50 in test [2] is 953 nM; in the test on mouse spleen cells (LPS 100 μg/mL, read-out: Inhibition of LPS response), 1 to 100 nM; with mouse spleen cells (anti-mouse IgM antibody 100 μg/mL, read-out: Inhibition of Anti-IgM antibody response), 1 to 100 nM; in the test with mouse spleen cells (concanavalin A 3 μg/mL, read-out: Inhibition of Con A response), 1 to 100 nM.
